What was measured:
[1] = DPPH radical scavenging activity assay; type: biochemical; details: for DPPH Clearance rate: n = 3
Text: 2,2-Diphenyl-1-picryl hydrazyl (DPPH) is an organic compound composed of a stable organic radical. In the DPPH molecule, due to the presence of multiple electron-withdrawing —NO2 and large π bonds of the benzene ring, nitrogen free radical is stabilized. Its methanol solution is purple and has a maximum absorption peak at 517 nm. After the addition of an antioxidant, DPPH captures an electron to be paired with the free electron, and the purple fades and turns into a yellow substance. The absorption at 517 nm disappears, and the degree of fading is quantitatively related to the number of electrons it captures. Based on this principle, a spectrophotometer is used to detect the change of the absorbance of the DPPH radical and the sample solution, and the ability of the sample to provide hydrogen atoms and scavenge free radicals can be measured.
Preparation of DPPH solution: measuring exact amount of 2,2-diphenyl-1-picryl hydrazyl (DPPH) and dissolving in toluene to prepare a 0.2 mmol/L DPPH solution, stored at 0° C. in dark.
Preparation of test solution: Vc (vitamin C, positive control), compound of formula (I) (sample), silibinin (control) and lipoic acid (control). The sample solution was subjected to gradient dilution with toluene, and three sets of controls were separately dissolved in a test tube with a certain amount of toluene to prepare the same concentration gradient as the sample.
Sample liquid absorbance measurement: Take 2 mL of sample solution (Table 2 Vc, B, C), add 2 mL of DPPH solution with concentration of 2×10^−4 mol/L, mix and react in the dark at room temperature for 30 min, adjust to zero with toluene, and measure at 517 nm. The absorbance Ai was simultaneously measured for the absorbance Aj of 2 mL of toluene mixed with 2 mL of the sample solution and the absorbance Ao of 2 mL of DPPH solution mixed with 2 mL of toluene (the experimental results are shown in Table 3).
clearance rate (%)=[1−(Ai−Aj)/Ao]*100% Clearance calculation: […]

[2] = system: Mice with Alcoholic Liver Injury; experiment: Protective effect on alcoholic liver injury in mice (serum ALT, AST, TG); type: in vivo; details: 25 days, ethanol 3 g/kg/day
Experimental: The compound of formula (I) was prepared by the method of example 7. In order to study its protective effect on alcoholic liver injury in mice, the following animal model was designed.
Three-week-old 30-35 g SPF male mice were randomly divided into normal control group, model group, low-dose group, high-dose group and tiopronin positive control group after adaptive feeding for 3 days. The normal control group and model group were fed with basic feed every day; low dose group and high dose group were fed with basic diet every day and were given the compound of formula (I) of 10 mg/kg/day and 50 mg/kg/day, respectively; tiopronin positive control group was fed with basic feed and 50 mg/kg/day tiopronin. Ethanol 3 g/kg/day (0.01 mL/g) was given to the model group, low dose group, high dose group and tiopronin positive control group. The normal control group was given distilled water of the same volume. After 25 days, fasting for 2 hours after the last administration, glutamic pyruvic transaminase (ALT), glutamic oxaloacetic transaminase (AST) and triglyceride (TG) were measured in serum by decapitation.

| SMILES | DPPH Clearance rate ([1]; 1.76 ppm) | DPPH Clearance rate ([1]; 8.80 ppm) | DPPH Clearance rate ([1]; 21.12 ppm) | DPPH Clearance rate ([1]; 42.24 ppm) | DPPH Clearance rate ([1]; 79.20 ppm) | DPPH Clearance rate ([1]; 112.64 ppm) | DPPH Clearance rate ([1]; 281.60 ppm) | DPPH Clearance rate ([1]; 492.80 ppm) | DPPH Clearance rate ([1]; 792.00 ppm) | DPPH Clearance rate ([1]; 915.20 ppm) | ALT ([2]; 10 mg/kg/day) | AST ([2]; 10 mg/kg/day) | TG ([2]; 10 mg/kg/day) | ALT ([2]; 50 mg/kg/day) | AST ([2]; 50 mg/kg/day) | TG ([2]; 50 mg/kg/day) | scavenging ability compared with silibinin (B) and lipoic acid (C) alone ([1]; DPPH free radicals, at the same concentration) | scavenging ability compared with the positive control Vc group ([1]; DPPH radical) | highest scavenging rate of DPPH radical ([1]; in the determined concentration range) |
| --- | --- | --- | --- | --- | --- | --- | --- | --- | --- | --- | --- | --- | --- | --- | --- | --- | --- | --- | --- |
| O=C(O)CCCCC1CCSS1 (centres unmarked) [C, Lipoic acid] | 7.27% | 8.52% | 16.42% | 23.54% | 36.45% | 41.58% | 54.23% | 67.82% | 72.01% | 73.69% | – | – | – | – | – | – | – | – | – |
| COc1cc(C2Oc3cc([C@H]4Oc5cc(O)cc(O)c5C(=O)[C@@H]4O)ccc3OC2COC(=O)CCCCC2CCSS2)ccc1O (stereo partly drawn) [Compound of Formula (I), (3-(4-hydroxy-3-methoxyphenyl)-6-((2R,3R)-3,5,7-trihydroxy-4-oxochroman-2-yl)-2,3-dihydrobenzo[b][1,4]dioxin-2-yl)methyl 5-(1,2-dithiolan-3-yl)pentanoate] | 12.28% | 19.80% | 32.16% | 43.55% | 69.42% | 78.95% | 81.21% | 86.70% | 90.06% | 93.52% | 61.72 ± 10.37 U/L | 139.84 ± 18.95 U/L | 0.902 ± 0.19 mmol/L | 57.21 ± 2.93 U/L | 134.56 ± 6.57 U/L | 0.873 ± 0.35 mmol/L | better | slightly weaker | 93.52% |
| CC(S)C(=O)NCC(=O)O (centres unmarked) [Tiopronin, tiopronin, reference compound] | – | – | – | – | – | – | – | – | – | – | – | – | – | 65.32 ± 8.79 U/L | 141.37 ± 18.75 U/L | 1.156 ± 0.33 mmol/L | – | – | – |

Reference: patent US11306076B2, “Silibinin lipoic acid ester with hepatoprotective activity and a method of preparing the same” (XI'AN TAIKOMED PHARMACEUTICAL TECHNOLOGY CO., LTD., priority 2020, dated 2022)
